Values joined by “and” are separate entries in the source; they are usually repeats but may differ in a detail not shown here. Equal entries are not always repeated. Structures can show the parent of a compound that is named as a salt. Where two headings read alike, the source gives them in different places.
Key:
[1] = tested on: mouse bone-marrow derived macrophages
[2] = molecular target: CSF-1R (c-fms) (Homo sapiens (Human), UniProt P07333); assay: Fluorescence polarization competition immunoassay (1 nM c-fms; peptide Pi assay); assay type: biochemical; conditions: read-out: 1 nM c-fms; peptide Pi assay - IC-50
Sequence of CSF-1R (c-fms) (P07333 20-972): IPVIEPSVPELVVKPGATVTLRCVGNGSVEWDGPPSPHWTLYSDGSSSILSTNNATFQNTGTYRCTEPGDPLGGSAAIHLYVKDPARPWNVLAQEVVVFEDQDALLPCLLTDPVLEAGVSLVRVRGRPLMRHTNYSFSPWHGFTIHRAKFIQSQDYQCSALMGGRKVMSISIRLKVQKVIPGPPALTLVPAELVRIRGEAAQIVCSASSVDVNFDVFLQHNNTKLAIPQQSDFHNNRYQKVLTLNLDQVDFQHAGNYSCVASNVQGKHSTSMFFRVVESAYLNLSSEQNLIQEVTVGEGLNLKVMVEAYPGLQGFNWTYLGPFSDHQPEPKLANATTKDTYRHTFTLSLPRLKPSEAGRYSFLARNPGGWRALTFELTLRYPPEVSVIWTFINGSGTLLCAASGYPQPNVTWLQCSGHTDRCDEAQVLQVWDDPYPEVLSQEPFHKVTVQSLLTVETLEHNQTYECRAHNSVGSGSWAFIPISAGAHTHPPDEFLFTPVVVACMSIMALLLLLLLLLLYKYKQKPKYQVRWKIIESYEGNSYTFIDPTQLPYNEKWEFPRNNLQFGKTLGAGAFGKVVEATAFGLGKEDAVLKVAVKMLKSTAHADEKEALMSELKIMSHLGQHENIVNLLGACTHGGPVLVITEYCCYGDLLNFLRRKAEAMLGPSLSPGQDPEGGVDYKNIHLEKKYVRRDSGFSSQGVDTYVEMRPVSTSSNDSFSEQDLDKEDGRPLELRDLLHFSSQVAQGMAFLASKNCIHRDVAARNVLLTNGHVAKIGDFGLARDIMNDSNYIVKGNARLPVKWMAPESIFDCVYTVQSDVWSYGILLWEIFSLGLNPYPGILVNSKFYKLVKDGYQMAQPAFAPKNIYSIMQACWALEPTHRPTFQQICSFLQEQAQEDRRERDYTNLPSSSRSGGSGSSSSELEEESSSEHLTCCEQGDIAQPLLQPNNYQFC
Procedure: Fluorescence Polarization Competition Immunoassay
The kinase reaction was initiated by adding 1 μL of 10 mM ATP in assay buffer. […] Positive and negative control wells were included on each plate, where 4% DMSO in assay buffer was substituted for the compound; in addition, positive control wells received 1.2 μL of 50 mM EDTA (ethylenediaminetetraacetic acid) before the start of the reaction.
The plates were covered, incubated for 30 min at room temperature, and the fluorescence polarization was read on an Analyst plate reader (Molecular Devices). […] Reported IC50 values are the mean of three of at least three determinations.

[3] = molecular target: c-fms (Homo sapiens (Human), UniProt P07333); assay: 10 nM c-fms auto-Pi assay; assay type: biochemical; conditions: cell printed as 0.05@0.002–2; read-out: 10 nM c-fms auto-Pi assay - IC-50
Sequence of c-fms (P07333 20-972): as above

[4] = read-out: mCSF driven proliferation BMDM (Mouse) - IC-50, BrDU incorporation, CSF-1 stimulated, 30 hrs culture
[5] = Mus musculus, BMDM, 30 h, read-out: mCSF driven proliferation BMDM (Mouse) - IC-50 (μM), BrDU incorporation, CSF-1 stimulated, 30 hrs culture

SMILES	IC50 [2] [nM]	IC50 [1, 5] [µM]	also measured
CN1CCN(C(C)(C)c2ccc(NC(=O)c3nc(C#N)c[nH]3)c(C3=CCC(C)(C)CC3)c2)CC1 [Example 23, 4-Cyano-1H-imidazole-2-carboxy-lic acid{2-(4,4-di-methyl-cyclohex-1-enyl)-4-[1-meth-yl-1-(4-methyl-piperazin-1-yl)-ethyl]-phe-nyl}-amide]	–	–	IC50 [1, 4]: 0.0033 µM
O=C(Nc1ccc(CCN2CCOCC2)cc1C1=CCCCC1)c1nc2ccccc2[nH]1 [Example 39, 1H-Benzoimidazole-2-carboxylic acid [2-cyclohex-1-enyl-4-(2-morpholin-4-yl-ethyl)-phenyl]-amide trifluoroacetic acid salt]	> 60	–	–
CS(=O)(=O)c1ncc(C(=O)Nc2ccc(CCN3CCOCC3)cc2C2=CCCCC2)[nH]1 [Example 36, 2-Methanesulfonyl-3H-imidazole-4-carboxylic acid [2-cyclohex-1-enyl-4-(2-morpholin-4-yl-ethyl)-phenyl]-amide hydrochloride]	> 500	–	–
CC1(C)CC=C(c2cc(C(C)(C)NCCO)ccc2NC(=O)c2nc(C#N)c[nH]2)CC1 [Example 65, 4-Cyano-1H-imidazole-2-carboxylic acid {2-(4,4-dimethyl-cyclohex-1-enyl)-4-[1-(2-hydroxy-ethylamino)-1-methyl-ethyl]-phenyl}-amide hydrochloride]	–	0.0081	–
N#Cc1cnc(C(=O)Nc2ccc(CN3CCOCC3)cc2C2=CCCCC2)[nH]1 [Example 44, 5-Cyano-1H-imidazole-2-carboxylic acid (2-cyclohex-1-enyl-4-morpholin-4-ylmethyl-phenyl)-amide hydrochloride]	–	0.0164	IC50 ([1]; read-out: mCSF driven proliferation BMDM (Mouse) - IC-50, BrDU incorporation, CSF-1 stimulated, 30 hrs culture, hydrochloride): 0.0146 µM
CCN(C)CCCc1ccc(NC(=O)c2ccc(C#N)o2)c(N2CCC(C)CC2)c1 [Example 55, 5-Cyano-furan-2-carboxylic acid [4-[3-(ethyl-methyl-amino)-propyl]-2-(4-methyl-piperidin-1-yl)-phenyl]-amide]	–	–	IC50 [3]: 50 nM
O=C(Nc1ccc(CCN2CCOCC2)cc1C1=CCCCC1)c1nc(Cl)c(Cl)[nH]1 [Example 38, 4,5-Dichloro-1H-imidazole-2-carboxylic acid [2-cyclohex-1-enyl-4-(2-morpholin-4-yl-ethyl)-phenyl]-amide trifluoroacetic acid salt]	> 60	–	–
COCCNC(C)(C)c1ccc(NC(=O)c2nc(C#N)c[nH]2)c(C2=CCC(C)(C)CC2)c1 [Example 20, 4-Cyano-1H-imidazole-2-carboxy-lic acid{2-(4,4-di-methyl-cyclo-hex-1-enyl)-4-[1-(2-meth-oxy-ethyl-amino)-1-methyl-ethyl]-phenyl}-amide]	–	–	IC50 [1, 4]: 0.0047 µM and 0.0048 µM
O=C(Nc1ccc(CCN2CCOCC2)cc1C1=CCCCC1)c1ncc(Cl)[nH]1 [Example 41, 5-Chloro-1H-imidazole-2-carboxylic acid [2-cyclohex-1-enyl-4-(2-morpholin-4-yl-ethyl)-phenyl]-amide hydrochloride]	–	0.321	–
CC1(C)CC=C(c2cc(C(C)(C)CN3C[C@@H]4OC(C)(C)O[C@@H]4C3)ccc2NC(=O)c2nc(C#N)c[nH]2)CC1 [Example 140, 4-Cyano-1H-imidazole-2-carboxylic acid {2-(4,4-dimethyl-cyclohex-1-enyl)-4-[2-(2,2-dimethyl-tetrahydro-[1,3]dioxolo[4,5-c]pyrrol-5-yl)-1,1-dimethyl-ethyl]-phenyl}-amide]	> 100	0.031	–
C[S+]([O-])c1ncc(C(=O)Nc2ccc(CCN3CCOCC3)cc2C2=CCCCC2)[nH]1 (centres unmarked) [Example 35, 2-Methanesulfinyl-3H-imidazole-4-carboxylic acid [2-cyclohex-1-enyl-4-(2-morpholin-4-yl-ethyl)-phenyl]-amide trifluoroacetic acid salt]	> 500	–	–
CC1(C)CC=C(c2cc(CC(=O)NCCCO)ccc2NC(=O)c2ncc(C#N)[nH]2)CC1 [Example 54, 5-Cyano-1H-imidazole-2-carboxylic acid {2-(4,4-dimethyl-cyclohex-1-enyl)-4-[(3-hydroxy-propylcarbamoyl)-methyl]-phenyl}-amide]	–	> 0.1	–
N#Cc1c[nH]c(C(=O)Nc2ccc(CCS(=O)(=O)N3CCOCC3)cc2C2=CCCCC2)n1 [Example 26, 4-Cyano-1H-imidazole-2-carboxylic acid {2-cyclohex-1-enyl-4-[2-(morpholine-4-sulfonyl)-ethyl]-phenyl}-amide]	–	–	IC50 [1, 4]: 0.0059 µM
Cc1nc(C(=O)Nc2ccc(CCN3CCOCC3)cc2C2=CCCCC2)[nH]c1C#N [Example 33, 5-Cyano-4-methyl-1H-imidazole-2-carboxylic acid [2-cyclohex-1-enyl-4-(2-morpholin-4-yl-ethyl)-phenyl]-amide hydrochloride]	> 60	–	–
CC1(C)CC=C(c2cc(C(C)(C)N3CCN(CC(=O)O)CC3)ccc2NC(=O)c2nc(C#N)c[nH]2)CC1 [Example 64, (4-{1-[4-[(4-Cyano-1H-imidazole-2-carbonyl)-amino]-3-(4,4-dimethyl-cyclohex-1-enyl)-phenyl]-1-methyl-ethyl}-piperazin-1-yl)-acetic acid, sodium salt]	–	0.2	–

Source: patent publication US8674100B2, “Inhibitors of C-FMS kinase” (Janssen Pharmaceutica, N.V., priority 2006, dated 2014)
